As usually defined, the Ki is a dissociation constant, usually derived from enzyme kinetics or from competition with a known ligand. A high value points to a looser hold on the target. A word on the IC50: it is the concentration that inhibits the measured activity by half.

Molecules are shown by their SMILES.

The values below come from patent US10207984B2, “Cyclopropyl derivatives and methods of use” (Emory University, priority 2011, dated 2019).

Series [1] deals with T1, norepinephrine transporters (NET) (Rattus norvegicus, UniProt Q9WTR4).
T1 construct: Whole rat brains (minus cerebellum) are homogenized; from tissue; host or cells: rat whole brain minus cerebellum, membranes
T1 sequence (Q9WTR4 1-597): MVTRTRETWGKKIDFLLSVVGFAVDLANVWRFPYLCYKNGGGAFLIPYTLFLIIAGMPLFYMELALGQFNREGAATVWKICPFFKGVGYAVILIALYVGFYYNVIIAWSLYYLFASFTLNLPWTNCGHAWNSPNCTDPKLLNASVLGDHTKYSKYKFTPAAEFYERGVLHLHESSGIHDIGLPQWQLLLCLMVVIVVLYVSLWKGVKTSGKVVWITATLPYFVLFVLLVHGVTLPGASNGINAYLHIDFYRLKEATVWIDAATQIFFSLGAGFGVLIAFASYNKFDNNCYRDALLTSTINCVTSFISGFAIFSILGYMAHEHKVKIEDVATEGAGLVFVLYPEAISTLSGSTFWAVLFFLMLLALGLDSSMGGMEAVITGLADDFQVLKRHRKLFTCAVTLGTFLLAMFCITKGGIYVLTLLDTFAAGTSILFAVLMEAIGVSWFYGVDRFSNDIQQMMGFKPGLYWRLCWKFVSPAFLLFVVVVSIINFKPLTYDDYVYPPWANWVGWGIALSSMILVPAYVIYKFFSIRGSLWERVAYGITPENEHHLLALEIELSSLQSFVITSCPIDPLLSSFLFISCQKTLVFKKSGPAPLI
Kind of series: NET binding, displacement of [3H]nisoxetine in rat brain membranes. On the procedure: (§1) Binding of analogs at norepinephrine transporters (NET) was determined by displacement of [^3H]nisoxetine binding. […] The membranes are resuspended in nisoxetine assay buffer (300 mM NaCl, 5 mM KCl, 50 mM Tris-HCl, pH 7.4) and centrifuged again before final resuspension in volumes of buffer. Assay tubes contain 750 μl of brain membranes, [^3H]nisoxetine (0.7 nM) together with unlabeled drugs dissolved in nisoxetine assay buffer to a final volume of 1 ml. Tubes are incubated for 40 min at 25° C., and the reaction is terminated by rapid filtration with 3×4 mL of cold Tris buffer through Whatman GF/B glass fiber filters which have been pre-soaked in Tris buffer containing 0.1% BSA for at least 1 h. Non-specific binding is determined in the presence of 1 μM desipramine. In [^3H]citalopram and [^3H]nisoxetine binding assays, radioactivity is determined by liquid scintillation spectrophotometry (efficiency: 50%) after eluting filters overnight in 5 mL of Ecolite scintillation fluid (ICN). IC50 values are calculated from displacement curves using 7-10 concentrations of unlabeled analogs. […] For [^3H]paroxetine and [^3H]nisoxetine binding assays, Ki values are calculated using the Cheng-Prusoff equation.

Series [2] concerns the target T2, 5-HT transport (SERT) sites (Rattus norvegicus, UniProt P31652).
T2 construct: Tissue is obtained from frozen rat brains as described above; from tissue; host or cells: rat frontal cortex membranes (frozen rat brains)
Kind of series: SERT binding, displacement of [3H]citalopram in rat frontal cortex membranes. The procedure: Affinities of analogs at 5-HT transport (SERT) sites are determined by displacement of [^3H] citalopram binding in membranes from rat frontal cortex. […] Assay tubes contain 50 mg (original wet weight) of membranes, 0.4 nM [^3H]citalopram, and various concentrations of unlabeled drugs dissolved in citalopram assay buffer in a final volume of 2 ml. Tubes are incubated for 60 min at 25° C., and the reaction is terminated by rapid filtration with 3×4 mL of cold Tris buffer through Whatman GF/B glass fiber filters pre-soaked in Tris buffer containing 0.1% BSA for at least 1 h. Non-specific binding is determined in the presence of 10 μM fluoxetine.
as §1
Background: Loss of bound radioactivity is the signal in a displacement assay; it reports binding, not function.

Series [3] is described as follows: Log-P (Table 1). Format: physicochemical.
For series [4], the system named is SNL rats. Kind of series: Mechanical allodynia (paw withdrawal threshold) in L5/L6 spinal nerve ligation (SNL) model of neuropathic pain. It is filed as in vivo, rat. Particulars: i.t., clonidine 10 μg, HD-283 30 μg, HD-286 and HD-288 up to 3 μg. The text has this:
A 3 cm incision was made in the back using the iliac crests as a midpoint. An incision was then made in the underlying muscle, which was then separated by both sharp and blunt dissection to expose the left transverse process of the fifth lumbar vertebra. The transverse process was removed using bone microrongeurs, and the fifth lumbar nerve was exteriorized from underneath the spinal column using a small metal hook and ligated using 4.0 silk suture with sufficient pressure to cause the nerve to bulge on each side of the ligature. The sixth lumbar nerve was exteriorized from underneath the iliac bone at the sciatic notch and ligated in a similar manner. All muscle layers were sutured using 4.0 chromic gut, the skin was sutured using 4.0 nylon suture.
The animal is placed in a stereotaxic frame to immobilize the head under pentobarbital anesthesia. The animal's body is lifted and supported to render the spinal column straight and level and the animal's head is placed downward such the top of the skull forms a 90° angle with the spinal column. A small incision is placed at the back of the neck and the underlying muscles are blunt dissected to reveal the atlanto-occipital membrane. A small incision is placed in the atlanto-occipital membrane through which a 32 ga polyethylene catheter is inserted that is 8 cm in length. The catheter is anchored to the neck muscles with 4.0 silk suture and the exterior wounds are closed with 4.0 nylon suture.
All compounds were dissolved in 0.9% (wt/vol) saline, pH 7.4 and administered through the intrathecal catheter in a volume of 5 μl, followed by 15 μl of 0.9% saline to flush the catheter.
Paw withdrawal threshold was determined before and at selected time points following intrathecal drug administration using calibrated von Frey filaments. The animals are placed in elevated Plexiglas chambers with wire mesh floors and acclimated for a minimum of 30 minutes. Beginning with a filament calibrated to bend with a force of 2 g of pressure, the filament is applied to the plantar surface of the left hindpaw with sufficient force to bend slightly and left in place for 8 seconds or until the animal withdraws it's paw from the filament. In the absence of a paw withdrawal, the next highest calibrated filament is applied in a similar manner. In the presence of a paw withdrawal, the next lowest calibrated filament is applied. This up-down method continues until 4 responses are recorded after an initial positive response. The paw withdrawal threshold is calculated using Dixon non-parametric statistics.
The potency and efficacy of novel SNRT analogs in reversing mechanical hypersensitivity were determined in the L5/L6 spinal nerve ligation (SNL) model of neuropathic pain in rats. Compounds were administered intrathecal (i.t.) and the effect on paw withdrawal threshold was assessed at various time points following treatment.

For series [5], the target named is T3, dopamine transport (DAT) sites (Rattus norvegicus, UniProt P23977).
T3 construct: from tissue; host or cells: Sprague-Dawley rat striatum membranes
T3 sequence (P23977 whole entry): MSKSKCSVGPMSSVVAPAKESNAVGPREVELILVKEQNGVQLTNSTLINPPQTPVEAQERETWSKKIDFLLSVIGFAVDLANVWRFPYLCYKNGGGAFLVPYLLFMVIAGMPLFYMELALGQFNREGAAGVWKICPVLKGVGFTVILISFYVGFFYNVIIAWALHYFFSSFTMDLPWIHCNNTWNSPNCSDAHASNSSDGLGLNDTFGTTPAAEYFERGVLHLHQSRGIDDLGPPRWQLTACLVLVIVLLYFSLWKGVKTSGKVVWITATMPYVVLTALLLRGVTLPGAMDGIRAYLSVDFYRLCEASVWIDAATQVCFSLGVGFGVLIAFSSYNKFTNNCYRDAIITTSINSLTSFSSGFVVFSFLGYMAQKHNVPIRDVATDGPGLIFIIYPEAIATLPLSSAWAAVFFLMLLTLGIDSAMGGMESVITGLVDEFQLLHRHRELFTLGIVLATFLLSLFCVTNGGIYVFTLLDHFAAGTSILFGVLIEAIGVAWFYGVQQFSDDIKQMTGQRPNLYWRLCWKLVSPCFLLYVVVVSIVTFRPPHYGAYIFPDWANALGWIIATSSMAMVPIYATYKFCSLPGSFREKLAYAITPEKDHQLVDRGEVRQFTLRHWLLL
Kind of series: DAT binding, displacement of [125I]RTI-55 in rat striatum membranes. The procedure:
Frozen brains from Sprague-Dawley rats are obtained commercially and striata are dissected on ice. […] Tubes are incubated for 50 min at 25° C., and the reaction is terminated by rapid filtration with 3-5 ml of cold Tris buffer through Whatman GF/B glass fiber filters pre-soaked in Tris buffer containing 0.1% BSA for at least 1 h. Non-specific binding is determined in the presence of 1 μMWF-23. […]

T2 sequence (P31652 whole entry): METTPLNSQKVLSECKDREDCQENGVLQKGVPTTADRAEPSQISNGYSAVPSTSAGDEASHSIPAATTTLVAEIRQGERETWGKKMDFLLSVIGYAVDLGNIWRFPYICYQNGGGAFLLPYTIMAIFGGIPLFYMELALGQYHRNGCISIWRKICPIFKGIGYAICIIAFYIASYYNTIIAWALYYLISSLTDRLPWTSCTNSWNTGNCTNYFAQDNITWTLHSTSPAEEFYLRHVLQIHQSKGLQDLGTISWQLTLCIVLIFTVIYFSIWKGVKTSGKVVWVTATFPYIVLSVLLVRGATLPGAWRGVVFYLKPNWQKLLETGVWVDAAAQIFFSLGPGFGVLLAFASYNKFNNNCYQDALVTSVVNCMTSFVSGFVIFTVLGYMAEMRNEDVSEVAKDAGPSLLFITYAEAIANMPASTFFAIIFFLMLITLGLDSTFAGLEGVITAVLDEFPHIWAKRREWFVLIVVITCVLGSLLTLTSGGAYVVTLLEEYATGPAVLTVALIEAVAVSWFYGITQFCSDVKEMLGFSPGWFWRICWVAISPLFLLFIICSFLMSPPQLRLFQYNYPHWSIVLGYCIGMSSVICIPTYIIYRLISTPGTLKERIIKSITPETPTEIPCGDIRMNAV

For `CCN(CC)C(=O)C1(c2ccccc2)CC1CN` (stereo not drawn) [HD-283, Milnacipran, reference compound], the Ki was determined as 23.8 ± 1.7 nM in series [1] and 35.1 ± 4.4 nM in series [2]. Besides, in series [1] (NET versus SERT binding), the “transporter selectivity (in words)” value is “non-selective”. Besides, the Log-P in series [3] stood at 1.91. Moreover, the “anti-allodynic effect (in words)” value in series [4] is reported as “reversed mechanical allodynia”. The same molecule returned an IC50 in series [5] of 1970 ± 230 nM.
